Reference: patent US20240174622A1, “COMPOUND AND RADIOACTIVE LABELING COMPOUND” (NIHON MEDI-PHYSICS CO., LTD., priority 2021, published 2024)
Several values for one entry are separate records, joined by “and”; a condition that tells them apart may be missing. Identical values can stand only once.

Columns and labels:
[1] = tested on: LNCaP tumor-transplanted mouse; assay: Internal radioactivity distribution using LNCaP tumor-transplanted mouse; assay type: in vivo
Description: (§1) The animal test was performed in compliance with the guidelines of Kyoto University Animal Experiment Committee. Male CB17/IcrJcl-Prkdc^scid mice were purchased from CLEA Japan, Inc. The animals were kept under 12 h/12 h, day/night cycle conditions and fed ad libitum with food and water. LNCaP cells (1.0×10^7 cells/mouse) or PC-3 cells (1.0×10^7 cells/mouse) were suspended in a mixture of PBS and Matrigel manufactured by Corning Life Sciences (1:1, 150 μL) and the suspension was subcutaneously transplanted to the right shoulder of mice under isoflurane anesthesia. Thereafter, the mice were kept for 40 to 60 days.
LNCaP or PC-3 tumor-implanted mice were administered saline solutions (185 kBq, 100 μL) of [^111In]In-PSMA-DA1 or [^111In]In-PSMA-DB from the tail vein (n=3 each). Mice were euthanized 1, 4, 24, 48, 96, and 192 hours after administration. Thereafter, blood and each organ were recovered, and the mass and radioactivity of the organs were measured.
The percentage (% ID) of the radioactivity amount to the administered radioactivity amount (injected dose) is shown as the value (% ID/g) divided by the blood mass or the organ mass (g).
LNCaP tumor-implanted mice prepared by the same method as in Example 1-1 were administered a saline solution (241 kBq/100 μL) of [^111In]In-PtDA from the tail vein (n=3). Mice were euthanized 1, 24, and 48 hours after administration. Thereafter, blood and each organ were recovered, and the mass and radioactivity of the organs were measured.
LNCaP tumor-implanted mice prepared by the same method as in Example 1-1 were administered a saline solution (259 kBq/100 μL each) of each of the radiolabeled compounds in Examples 3-1 to 3-3 or Comparative Examples 2-1 to 2-2 from the tail vein (n=2 to 3). Mice were euthanized 1, 4, 24, 48, 96, and 192 hours after administration. Thereafter, blood and each organ were recovered, and the mass and radioactivity of the organs were measured.
as §1, with “LNCaP cells (4.3×10^6 cells/mouse) or” for “LNCaP cells (1.0×10^7 cells/mouse) or”, “PC-3 cells (3.3×10^6 cells/mouse) were” for “PC-3 cells (1.0×10^7 cells/mouse) were”, “shoulder of CB17/IcrJcl-Prkdc^scid mice under” for “shoulder of mice under”
Mice were euthanized 1, 4, 24, 48, 96, and 192 hours after administration. Thereafter, blood and each organ were recovered, and the mass and radioactivity of the organs were measured.
The results are shown in Table 12 (Mean value±standard deviation, n=3).

[2] = target: human serum albumin (HSA) (Homo sapiens, UniProt P02768); assay: Evaluation of binding to albumin (HSA solution, PBS control)
Description: Thereafter, the reaction liquids were added to a spin column (Sephadex G-100; manufactured by Cytiva), and centrifuged at 1500×g at 4° C. for 2 minutes. After separation, the radioactivity for each of the column and the eluate was measured with a gamma counter.
When a compound to be evaluated binds to albumin to form a composite, the compound passes through the column because of the increased molecular size.
As in Examples described above, PBS and human albumin were used to evaluate binding to albumin.
Thereafter, the reaction liquid was added to a spin column (Sephadex G-50; manufactured by Cytiva), and centrifuged at 1500×g at 4° C. for 2 minutes. After separation, the radioactivity of the column and the eluate was measured with a gamma counter.

Sequence of human serum albumin (HSA) (P02768 25-609): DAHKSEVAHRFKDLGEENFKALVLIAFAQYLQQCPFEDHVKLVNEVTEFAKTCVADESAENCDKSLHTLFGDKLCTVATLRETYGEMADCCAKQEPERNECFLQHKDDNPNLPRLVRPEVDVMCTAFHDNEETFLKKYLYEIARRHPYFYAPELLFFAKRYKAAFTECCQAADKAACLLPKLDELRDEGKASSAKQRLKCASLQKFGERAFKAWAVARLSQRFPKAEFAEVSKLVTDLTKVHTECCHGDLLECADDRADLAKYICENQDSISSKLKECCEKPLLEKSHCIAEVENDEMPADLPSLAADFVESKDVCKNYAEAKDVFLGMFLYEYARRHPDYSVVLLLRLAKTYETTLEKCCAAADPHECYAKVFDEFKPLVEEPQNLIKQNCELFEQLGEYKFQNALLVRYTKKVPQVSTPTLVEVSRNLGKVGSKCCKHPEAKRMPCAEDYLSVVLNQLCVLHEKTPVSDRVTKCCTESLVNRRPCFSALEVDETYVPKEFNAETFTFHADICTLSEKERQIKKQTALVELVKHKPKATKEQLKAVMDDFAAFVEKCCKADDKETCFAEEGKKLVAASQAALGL

SMILES: O=C([O-])CN1CCN(C(CCC(=O)NCCC(=O)N2Cc3ccccc3-c3c(nnn3CCOCCOCCOCCOCCC(=O)NCCCC[C@H](NC(=O)N[C@@H](CCC(=O)O)C(=O)O)C(=O)O)-c3ccccc32)C(=O)[O-])CCN(CC(=O)[O-])CCN(C(CCC(=O)N[C@@H](CCCCNC(=O)CCCc2ccc(I)cc2)C(=O)O)C(=O)[O-])CC1.[111In+3] (some centres unmarked) [[^111In]In-PtDA]
- Blood ([1]; 1 h after administration): 19.8 ± 2.74 % ID/g
- Brain ([1]; 1 h after administration): 0.36 ± 0.05 % ID/g
- Heart ([1]; 1 h after administration): 5.49 ± 0.77 % ID/g
- Intestine ([1]; 1 h after administration): 2.66 ± 0.28 % ID/g
- Kidney ([1]; 1 h after administration): 37.2 % ID/g and 37.2 ± 6.85 % ID/g
- LNCaP Tumor ([1]; 1 h after administration): 2.18 ± 0.17 % ID/g
- Liver ([1]; 1 h after administration): 3.51 ± 0.38 % ID/g
- Lung ([1]; 1 h after administration): 11.9 ± 1.57 % ID/g
- Muscle ([1]; 1 h after administration): 1.95 ± 0.30 % ID/g
- Pancreas ([1]; 1 h after administration): 2.31 ± 0.14 % ID/g
- Spleen ([1]; 1 h after administration): 15.3 ± 4.89 % ID/g
- Stomach (% ID) ([1]; 1 h after administration): 0.79 ± 0.19 % ID
- Blood ([1]; 24 h after administration): 12.5 ± 1.47 % ID/g
- Brain ([1]; 24 h after administration): 0.30 ± 0.05 % ID/g
- Heart ([1]; 24 h after administration): 3.95 ± 0.87 % ID/g
- Intestine ([1]; 24 h after administration): 1.52 ± 0.41 % ID/g
- Kidney ([1]; 24 h after administration): 68.0 ± 2.82 % ID/g
- LNCaP Tumor ([1]; 24 h after administration): 16.0 % ID/g and 16.0 ± 9.49 % ID/g
- Liver ([1]; 24 h after administration): 3.36 ± 0.77 % ID/g
- Lung ([1]; 24 h after administration): 8.63 ± 1.31 % ID/g
- Muscle ([1]; 24 h after administration): 1.28 ± 0.34 % ID/g
- Pancreas ([1]; 24 h after administration): 2.03 ± 0.48 % ID/g
- Spleen ([1]; 24 h after administration): 9.69 ± 0.92 % ID/g
- Stomach (% ID) ([1]; 24 h after administration): 0.46 ± 0.23 % ID
- Blood ([1]; 48 h after administration): 6.33 ± 1.53 % ID/g
- Brain ([1]; 48 h after administration): 0.20 ± 0.07 % ID/g
- Heart ([1]; 48 h after administration): 1.98 ± 0.41 % ID/g
- Intestine ([1]; 48 h after administration): 0.74 ± 0.28 % ID/g
- Kidney ([1]; 48 h after administration): 55.9 ± 6.39 % ID/g
- LNCaP Tumor ([1]; 48 h after administration): 18.7 % ID/g and 18.7 ± 5.21 % ID/g
- Liver ([1]; 48 h after administration): 2.28 ± 0.75 % ID/g
- Lung ([1]; 48 h after administration): 6.16 ± 1.56 % ID/g
- Muscle ([1]; 48 h after administration): 0.81 ± 0.40 % ID/g
- Pancreas ([1]; 48 h after administration): 1.12 ± 0.39 % ID/g
- Spleen ([1]; 48 h after administration): 10.5 ± 5.62 % ID/g
- Stomach (% ID) ([1]; 48 h after administration): 0.29 ± 0.20 % ID
- radioactivity in the eluate ([2]; PBS): 6.9%
- radioactivity in the eluate ([2]; human albumin solution): 92.4%
